These are literature values, as cited in patent US20060182688A1, “Metronidazole-based tinted topical pharmaceutical compositions” (GALDERMA S.A., priority 2003, published 2006).

Structures are written as SMILES.

The test system of this data set is rosacea.

With `Cc1ncc([N+](=O)[O-])n1CCO` [metronidazole, 1-(2-hydroxyethyl)-2-methyl-5-nitroimidazole], under “200 mg twice a day”, the effect on erythema result is recorded as “ineffective”; the “effect on the papules and pustules of rosacea” value is “had therapeutic effects”. Where the note is “rosacea”, the “action on the clinical signs such as erythema, telangiectasia or redness” value is reported as “no action”; the “effect against the papules and pustules” value is reported as “effective”; the “effect on the inflammatory lesions” value was “effectively improves”.
